Test results as given in PubChem BioAssay (NCI).
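Each compound was tested at five concentrations against cells in 96-well plates for 48 hours. The concentration for full growth arrest is given as TGI.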

Tests used:
Assay in all cases: NCI tumour cell line growth inhibition, 48 h
BT-549 breast = system: BT-549 breast
KM12 colon = system: KM12 colon
HOP-92 NSCLC = system: HOP-92 NSCLC
ACHN renal = system: ACHN renal
UO-31 renal = system: UO-31 renal
TK-10 renal = system: TK-10 renal
SNB-19 CNS = system: SNB-19 CNS
M14 melanoma = system: M14 melanoma
SK-OV-3 ovarian = system: SK-OV-3 ovarian
COLO 205 colon = system: COLO 205 colon
HCT-15 colon = system: HCT-15 colon
K-562 leukemia = system: K-562 leukemia
SF-539 CNS = system: SF-539 CNS
RXF 393 renal = system: RXF 393 renal
CAKI-1 renal = system: CAKI-1 renal
DU-145 prostate = system: DU-145 prostate
MDA-N = system: MDA-N
SR leukemia = system: SR leukemia
NCI-H460 lung = system: NCI-H460 lung
SK-MEL-5 melanoma = system: SK-MEL-5 melanoma
HS 578T breast = system: HS 578T breast
OVCAR-8 ovarian = system: OVCAR-8 ovarian
MOLT-4 leukemia = system: MOLT-4 leukemia
T-47D breast = system: T-47D breast
SK-MEL-2 melanoma = system: SK-MEL-2 melanoma
HOP-62 NSCLC = system: HOP-62 NSCLC
PC-3 prostate = system: PC-3 prostate
HT29 colon = system: HT29 colon
SN12C renal = system: SN12C renal
IGROV1 ovarian = system: IGROV1 ovarian
SF-295 CNS = system: SF-295 CNS
LOX IMVI melanoma = system: LOX IMVI melanoma
MCF7 breast = system: MCF7 breast
SNB-75 CNS = system: SNB-75 CNS
A498 renal = system: A498 renal
NCI/ADR-RES ovarian = system: NCI/ADR-RES ovarian
SF-268 CNS = system: SF-268 CNS
MDA-MB-435 = system: MDA-MB-435
UACC-62 melanoma = system: UACC-62 melanoma
OVCAR-3 ovarian = system: OVCAR-3 ovarian
786-0 renal = system: 786-0 renal
MDA-MB-231 breast = system: MDA-MB-231 breast
OVCAR-4 ovarian = system: OVCAR-4 ovarian
UACC-257 melanoma = system: UACC-257 melanoma
HCT-116 colon = system: HCT-116 colon
NCI-H226 lung = system: NCI-H226 lung
SK-MEL-28 melanoma = system: SK-MEL-28 melanoma
A549 NSCLC = system: A549 NSCLC
NCI-H23 lung = system: NCI-H23 lung
OVCAR-5 ovarian = system: OVCAR-5 ovarian
NCI-H522 lung = system: NCI-H522 lung
SW-620 colon = system: SW-620 colon
U251 CNS = system: U251 CNS
MALME-3M melanoma = system: MALME-3M melanoma
HL-60(TB) leukemia = system: HL-60(TB) leukemia
CCRF-CEM leukemia = system: CCRF-CEM leukemia
RPMI-8226 leukemia = system: RPMI-8226 leukemia
HCC-2998 colon = system: HCC-2998 colon
EKVX NSCLC = system: EKVX NSCLC

## COc1cc(S(=O)(=O)Nc2nc(-c3ccc(N4C(=O)/C(=C\c5cccs5)N=C4c4ccccc4)cc3)cs2)ccc1Cl
BT-549 breast
  TGI: 83.4 µM
KM12 colon
  TGI: > 100 µM
HOP-92 NSCLC
  TGI: 89.8 µM
ACHN renal
  TGI: > 100 µM
UO-31 renal
  TGI: > 100 µM
TK-10 renal
  TGI: > 100 µM
SNB-19 CNS
  TGI: > 100 µM
M14 melanoma
  TGI: > 100 µM
SK-OV-3 ovarian
  TGI: > 100 µM
COLO 205 colon
  TGI: > 100 µM
HCT-15 colon
  TGI: > 100 µM
K-562 leukemia
  TGI: > 100 µM
SF-539 CNS
  TGI: > 100 µM
RXF 393 renal
  TGI: > 100 µM
CAKI-1 renal
  TGI: > 100 µM
DU-145 prostate
  TGI: > 100 µM
MDA-N
  TGI: > 100 µM
SR leukemia
  TGI: > 100 µM
NCI-H460 lung
  TGI: > 100 µM
SK-MEL-5 melanoma
  TGI: > 100 µM
HS 578T breast
  TGI: 63.9 µM
OVCAR-8 ovarian
  TGI: > 100 µM
MOLT-4 leukemia
  TGI: > 100 µM
T-47D breast
  TGI: > 100 µM
SK-MEL-2 melanoma
  TGI: 64.8 µM
HOP-62 NSCLC
  TGI: > 100 µM
PC-3 prostate
  TGI: > 100 µM
HT29 colon
  TGI: > 100 µM
SN12C renal
  TGI: > 100 µM
IGROV1 ovarian
  TGI: > 100 µM
SF-295 CNS
  TGI: > 100 µM
LOX IMVI melanoma
  TGI: > 100 µM
MCF7 breast
  TGI: > 100 µM
SNB-75 CNS
  TGI: > 100 µM
A498 renal
  TGI: > 100 µM
NCI/ADR-RES ovarian
  TGI: > 100 µM
SF-268 CNS
  TGI: 59 µM
MDA-MB-435
  TGI: > 100 µM
UACC-62 melanoma
  TGI: 65.5 µM
OVCAR-3 ovarian
  TGI: > 100 µM
786-0 renal
  TGI: > 100 µM
MDA-MB-231 breast
  TGI: 56.6 µM
OVCAR-4 ovarian
  TGI: > 100 µM
UACC-257 melanoma
  TGI: > 100 µM
HCT-116 colon
  TGI: > 100 µM
NCI-H226 lung
  TGI: > 100 µM
SK-MEL-28 melanoma
  TGI: > 100 µM
A549 NSCLC
  TGI: > 100 µM
NCI-H23 lung
  TGI: > 100 µM
OVCAR-5 ovarian
  TGI: > 100 µM
NCI-H522 lung
  TGI: 83.8 µM
SW-620 colon
  TGI: > 100 µM
U251 CNS
  TGI: > 100 µM
MALME-3M melanoma
  TGI: 55.5 µM
HL-60(TB) leukemia
  TGI: > 100 µM
CCRF-CEM leukemia
  TGI: > 100 µM

## Nc1nc(Cl)c(N=Nc2ccc(Cl)cc2)c(NCC2(CO)CCC(CCc3ccccc3)C2)n1 (centres undefined)
BT-549 breast
  TGI: 23.4 µM
KM12 colon
  TGI: 26.9 µM
HOP-92 NSCLC
  TGI: 29.3 µM
ACHN renal
  TGI: 19.9 µM
UO-31 renal
  TGI: 4.31 µM
TK-10 renal
  TGI: 27.5 µM
SNB-19 CNS
  TGI: 48.7 µM
M14 melanoma
  TGI: 31.5 µM
RPMI-8226 leukemia
  TGI: 32.9 µM
SK-OV-3 ovarian
  TGI: 26.1 µM
COLO 205 colon
  TGI: 19.4 µM
HCT-15 colon
  TGI: 24.7 µM
K-562 leukemia
  TGI: 9.78 µM
SF-539 CNS
  TGI: 34.5 µM
RXF 393 renal
  TGI: 22.2 µM
CAKI-1 renal
  TGI: 13.5 µM
DU-145 prostate
  TGI: 25.9 µM
MDA-N
  TGI: 30.2 µM
NCI-H460 lung
  TGI: 30.6 µM
SK-MEL-5 melanoma
  TGI: 13.6 µM
HS 578T breast
  TGI: > 55.3 µM
OVCAR-8 ovarian
  TGI: 19.3 µM
MOLT-4 leukemia
  TGI: 8.49 µM
T-47D breast
  TGI: 32.2 µM
SK-MEL-2 melanoma
  TGI: 33.5 µM
HOP-62 NSCLC
  TGI: 28.1 µM
PC-3 prostate
  TGI: 25.8 µM
HT29 colon
  TGI: 30.4 µM
SN12C renal
  TGI: 30.2 µM
IGROV1 ovarian
  TGI: 23.4 µM
SF-295 CNS
  TGI: 25.7 µM
LOX IMVI melanoma
  TGI: 4.59 µM
MCF7 breast
  TGI: 19.5 µM
SNB-75 CNS
  TGI: 28 µM
A498 renal
  TGI: 27.3 µM
NCI/ADR-RES ovarian
  TGI: 34.4 µM
SF-268 CNS
  TGI: 33.4 µM
MDA-MB-435
  TGI: 23.7 µM
UACC-62 melanoma
  TGI: 22.1 µM
OVCAR-3 ovarian
  TGI: 23.6 µM
786-0 renal
  TGI: 21.6 µM
MDA-MB-231 breast
  TGI: 31.2 µM
OVCAR-4 ovarian
  TGI: 10.6 µM
UACC-257 melanoma
  TGI: 25.1 µM
HCT-116 colon
  TGI: 20.2 µM
NCI-H226 lung
  TGI: 19.4 µM
HCC-2998 colon
  TGI: 17.3 µM
SK-MEL-28 melanoma
  TGI: 35.3 µM
A549 NSCLC
  TGI: 51.7 µM
NCI-H23 lung
  TGI: 15.6 µM
OVCAR-5 ovarian
  TGI: 31.3 µM
NCI-H522 lung
  TGI: 5.42 µM
SW-620 colon
  TGI: 17 µM
U251 CNS
  TGI: 31.2 µM
EKVX NSCLC
  TGI: 28.3 µM
MALME-3M melanoma
  TGI: 51 µM
HL-60(TB) leukemia
  TGI: 20.9 µM
CCRF-CEM leukemia
  TGI: 8.84 µM
